Assay results reported in patent US20250120967A1, “TYROSINE KINASES INHIBITORS AND USES THEREOF” (GREAT NOVEL THERAPEUTICS BIOTECH & MEDICALS CORPORATION, priority 2023, published 2025).

Key:
Test in all cases: Tyrosine kinase inhibition assay
Format in all cases: biochemical
Conditions in all cases: single concentration 1.0 μM, read-out: percent inhibition
TYK2 = TYK2 (Homo sapiens, UniProt P29597)
Experimental: (§1) Tyrosine kinase inhibition assays were performed at ThermoFisher Life Technologies (Madison, WI, USA) using standard protocols (SelectScreen Biochemical Profiling Service, Thermo Fisher Scientific). ATP concentrations used were at the apparent Km. Test compounds were screened in 1% dimethylsulffoxide (DMSO) (final concentration) in the well. For 10-point titrations, 3-fold serial dilutions were conducted from the starting concentration of […]. All Peptide/Kinase Mixtures were diluted to a 2× working concentration in the appropriate Kinase Buffer. All ATP Solutions were diluted to a 4× working concentration in Kinase Buffer (50 mM HEPES pH 7.5, 0.01% BRIJ-35, 10 mM MgCl2, 1 mM EGTA). The apparent ATP Km was previously determined using a Z′-LYTE assay. The Development Reagent was diluted in Development Buffer.
(§2) The inhibition activities of compounds were determined in biochemical assays using single concentration (1.0 μM) measurements. The results were provided as percent inhibition values. A compound displaying a percent inhibition value of greater 80% was defined as a hit. 99 different tyrosine kinases were used.

TXK = biological target: T1, TXK (Homo sapiens, UniProt P42681)
T1 sequence (P42681 1-527): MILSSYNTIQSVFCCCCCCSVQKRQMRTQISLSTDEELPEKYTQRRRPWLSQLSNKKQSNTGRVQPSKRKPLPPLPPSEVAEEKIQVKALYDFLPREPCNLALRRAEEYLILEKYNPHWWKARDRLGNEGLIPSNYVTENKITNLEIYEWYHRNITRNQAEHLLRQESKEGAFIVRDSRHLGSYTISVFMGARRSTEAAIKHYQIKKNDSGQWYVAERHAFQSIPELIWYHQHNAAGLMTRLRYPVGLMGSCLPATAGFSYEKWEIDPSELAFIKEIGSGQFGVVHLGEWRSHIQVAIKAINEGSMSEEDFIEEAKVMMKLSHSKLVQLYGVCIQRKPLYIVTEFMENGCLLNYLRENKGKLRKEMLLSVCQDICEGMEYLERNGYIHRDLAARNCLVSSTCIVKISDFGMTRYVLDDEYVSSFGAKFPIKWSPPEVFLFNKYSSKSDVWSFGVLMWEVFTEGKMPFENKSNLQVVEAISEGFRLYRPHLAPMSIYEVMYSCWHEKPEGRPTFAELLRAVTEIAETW
Experimental: as §1, §2

EPHA5 = EPHA5 (Homo sapiens, UniProt P54756)
EPHA5, sequence (P54756 25-1037): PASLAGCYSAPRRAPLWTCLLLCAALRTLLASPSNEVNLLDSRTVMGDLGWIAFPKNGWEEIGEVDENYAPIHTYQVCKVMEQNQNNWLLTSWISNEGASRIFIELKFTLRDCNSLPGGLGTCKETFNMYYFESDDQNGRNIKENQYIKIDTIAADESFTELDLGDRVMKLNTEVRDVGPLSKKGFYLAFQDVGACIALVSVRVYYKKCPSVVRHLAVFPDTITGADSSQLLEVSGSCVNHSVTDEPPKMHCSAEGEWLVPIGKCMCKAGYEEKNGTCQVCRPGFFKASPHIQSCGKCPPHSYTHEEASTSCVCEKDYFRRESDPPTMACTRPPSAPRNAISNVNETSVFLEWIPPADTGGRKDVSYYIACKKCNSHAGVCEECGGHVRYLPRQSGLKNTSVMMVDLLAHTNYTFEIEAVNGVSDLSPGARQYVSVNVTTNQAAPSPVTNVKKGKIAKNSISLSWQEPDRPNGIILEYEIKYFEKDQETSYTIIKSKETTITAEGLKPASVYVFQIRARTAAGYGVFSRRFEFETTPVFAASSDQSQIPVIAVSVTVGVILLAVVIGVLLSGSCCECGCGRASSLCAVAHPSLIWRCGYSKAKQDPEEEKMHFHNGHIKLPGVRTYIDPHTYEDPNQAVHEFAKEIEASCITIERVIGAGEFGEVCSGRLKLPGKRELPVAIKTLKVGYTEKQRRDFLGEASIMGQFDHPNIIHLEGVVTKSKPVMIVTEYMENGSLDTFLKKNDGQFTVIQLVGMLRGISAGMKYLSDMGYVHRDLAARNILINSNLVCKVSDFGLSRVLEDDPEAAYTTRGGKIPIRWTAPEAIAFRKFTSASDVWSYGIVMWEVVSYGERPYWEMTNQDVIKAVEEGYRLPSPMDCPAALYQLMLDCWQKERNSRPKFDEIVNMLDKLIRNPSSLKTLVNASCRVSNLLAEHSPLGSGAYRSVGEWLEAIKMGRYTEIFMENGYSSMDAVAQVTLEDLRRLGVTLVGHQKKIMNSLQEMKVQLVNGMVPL
Experimental: as §1, §2

YES1 = YES1 (Homo sapiens, UniProt P07947)
YES1, sequence (P07947 whole entry): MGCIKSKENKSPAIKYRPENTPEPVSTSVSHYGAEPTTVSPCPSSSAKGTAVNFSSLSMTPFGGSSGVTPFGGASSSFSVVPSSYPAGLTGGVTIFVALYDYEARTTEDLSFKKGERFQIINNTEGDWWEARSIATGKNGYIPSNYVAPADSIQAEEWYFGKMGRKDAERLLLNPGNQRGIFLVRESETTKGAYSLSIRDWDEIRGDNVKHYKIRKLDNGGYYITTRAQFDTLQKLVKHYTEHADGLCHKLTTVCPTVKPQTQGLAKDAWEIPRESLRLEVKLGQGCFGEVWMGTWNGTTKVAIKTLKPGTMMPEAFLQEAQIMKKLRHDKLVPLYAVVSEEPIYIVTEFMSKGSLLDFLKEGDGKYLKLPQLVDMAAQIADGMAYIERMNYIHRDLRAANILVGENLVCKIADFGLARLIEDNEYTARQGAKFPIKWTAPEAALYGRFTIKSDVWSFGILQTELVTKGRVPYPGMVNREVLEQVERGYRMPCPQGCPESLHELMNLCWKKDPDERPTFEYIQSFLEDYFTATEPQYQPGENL
Experimental: as §1, §2

TEC = biological target: T2, TEC (Homo sapiens, UniProt P42680)
T2 sequence (P42680 1-631): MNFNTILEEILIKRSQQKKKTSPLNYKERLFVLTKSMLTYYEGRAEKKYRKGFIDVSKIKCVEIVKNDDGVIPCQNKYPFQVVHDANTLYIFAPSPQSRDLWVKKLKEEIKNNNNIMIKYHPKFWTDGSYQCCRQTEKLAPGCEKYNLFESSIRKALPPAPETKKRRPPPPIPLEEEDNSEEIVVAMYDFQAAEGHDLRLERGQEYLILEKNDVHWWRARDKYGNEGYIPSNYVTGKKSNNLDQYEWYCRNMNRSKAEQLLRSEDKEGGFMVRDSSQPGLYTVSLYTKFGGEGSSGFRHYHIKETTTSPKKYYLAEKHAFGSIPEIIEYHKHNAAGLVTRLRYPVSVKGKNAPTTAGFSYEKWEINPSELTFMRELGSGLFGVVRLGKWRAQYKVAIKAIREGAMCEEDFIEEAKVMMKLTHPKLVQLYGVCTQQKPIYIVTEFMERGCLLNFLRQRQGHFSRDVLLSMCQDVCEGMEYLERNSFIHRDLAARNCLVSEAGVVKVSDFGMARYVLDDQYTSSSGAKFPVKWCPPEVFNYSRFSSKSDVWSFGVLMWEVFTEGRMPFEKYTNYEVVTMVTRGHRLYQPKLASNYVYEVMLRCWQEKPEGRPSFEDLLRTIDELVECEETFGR
Experimental: as §1, §2

MAP4K3 (GLK) = biological target: T3, MAP4K3 (GLK) (Homo sapiens, UniProt Q8IVH8)
T3 sequence (Q8IVH8 1-894): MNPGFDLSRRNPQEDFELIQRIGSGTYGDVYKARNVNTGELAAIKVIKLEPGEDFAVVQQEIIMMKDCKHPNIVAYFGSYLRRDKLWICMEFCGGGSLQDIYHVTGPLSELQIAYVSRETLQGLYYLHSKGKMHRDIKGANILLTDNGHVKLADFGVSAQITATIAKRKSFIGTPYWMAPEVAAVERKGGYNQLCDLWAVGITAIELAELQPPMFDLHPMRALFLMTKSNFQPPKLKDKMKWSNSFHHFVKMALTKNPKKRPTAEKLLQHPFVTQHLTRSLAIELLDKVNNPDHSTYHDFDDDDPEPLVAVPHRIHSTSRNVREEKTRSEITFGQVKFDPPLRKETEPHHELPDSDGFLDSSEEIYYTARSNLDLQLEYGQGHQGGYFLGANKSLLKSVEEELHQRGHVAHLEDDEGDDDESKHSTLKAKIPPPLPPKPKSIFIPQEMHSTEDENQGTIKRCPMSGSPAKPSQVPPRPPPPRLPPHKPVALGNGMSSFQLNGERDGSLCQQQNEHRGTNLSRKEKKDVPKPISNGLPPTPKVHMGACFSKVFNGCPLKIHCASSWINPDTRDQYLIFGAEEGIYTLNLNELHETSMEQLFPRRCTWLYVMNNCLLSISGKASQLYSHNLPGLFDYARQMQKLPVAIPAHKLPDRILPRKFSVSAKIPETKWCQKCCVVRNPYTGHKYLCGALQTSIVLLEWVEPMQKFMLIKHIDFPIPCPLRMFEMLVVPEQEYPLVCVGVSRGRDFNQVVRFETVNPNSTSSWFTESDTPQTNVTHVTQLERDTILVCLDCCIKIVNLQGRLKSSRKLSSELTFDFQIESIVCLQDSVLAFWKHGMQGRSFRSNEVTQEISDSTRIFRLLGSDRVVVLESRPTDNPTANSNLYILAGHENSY
Experimental: as §1, §2

AKT2 (PKB beta) = AKT2 (PKB beta) (Homo sapiens, UniProt P31751)
AKT2 (PKB beta), sequence (P31751 whole entry): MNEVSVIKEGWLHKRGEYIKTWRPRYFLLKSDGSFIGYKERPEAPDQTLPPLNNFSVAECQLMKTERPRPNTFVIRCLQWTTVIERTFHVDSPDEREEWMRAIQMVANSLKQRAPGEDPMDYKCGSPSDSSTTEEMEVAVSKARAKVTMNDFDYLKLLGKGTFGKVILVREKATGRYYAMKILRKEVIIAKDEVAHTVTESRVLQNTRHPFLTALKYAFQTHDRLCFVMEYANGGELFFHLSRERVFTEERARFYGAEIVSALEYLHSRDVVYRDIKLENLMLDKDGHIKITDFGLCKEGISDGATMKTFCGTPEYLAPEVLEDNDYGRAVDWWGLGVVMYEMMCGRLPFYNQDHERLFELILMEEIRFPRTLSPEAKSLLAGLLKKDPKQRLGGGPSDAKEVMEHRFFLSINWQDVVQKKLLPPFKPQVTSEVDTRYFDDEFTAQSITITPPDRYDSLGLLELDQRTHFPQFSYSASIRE
Experimental: as §1, §2

SYK = SYK (Homo sapiens, UniProt P43405)
Experimental: as §1, §2

EPHA4 = EPHA4 (Homo sapiens, UniProt P54764)
EPHA4, sequence (P54764 20-986): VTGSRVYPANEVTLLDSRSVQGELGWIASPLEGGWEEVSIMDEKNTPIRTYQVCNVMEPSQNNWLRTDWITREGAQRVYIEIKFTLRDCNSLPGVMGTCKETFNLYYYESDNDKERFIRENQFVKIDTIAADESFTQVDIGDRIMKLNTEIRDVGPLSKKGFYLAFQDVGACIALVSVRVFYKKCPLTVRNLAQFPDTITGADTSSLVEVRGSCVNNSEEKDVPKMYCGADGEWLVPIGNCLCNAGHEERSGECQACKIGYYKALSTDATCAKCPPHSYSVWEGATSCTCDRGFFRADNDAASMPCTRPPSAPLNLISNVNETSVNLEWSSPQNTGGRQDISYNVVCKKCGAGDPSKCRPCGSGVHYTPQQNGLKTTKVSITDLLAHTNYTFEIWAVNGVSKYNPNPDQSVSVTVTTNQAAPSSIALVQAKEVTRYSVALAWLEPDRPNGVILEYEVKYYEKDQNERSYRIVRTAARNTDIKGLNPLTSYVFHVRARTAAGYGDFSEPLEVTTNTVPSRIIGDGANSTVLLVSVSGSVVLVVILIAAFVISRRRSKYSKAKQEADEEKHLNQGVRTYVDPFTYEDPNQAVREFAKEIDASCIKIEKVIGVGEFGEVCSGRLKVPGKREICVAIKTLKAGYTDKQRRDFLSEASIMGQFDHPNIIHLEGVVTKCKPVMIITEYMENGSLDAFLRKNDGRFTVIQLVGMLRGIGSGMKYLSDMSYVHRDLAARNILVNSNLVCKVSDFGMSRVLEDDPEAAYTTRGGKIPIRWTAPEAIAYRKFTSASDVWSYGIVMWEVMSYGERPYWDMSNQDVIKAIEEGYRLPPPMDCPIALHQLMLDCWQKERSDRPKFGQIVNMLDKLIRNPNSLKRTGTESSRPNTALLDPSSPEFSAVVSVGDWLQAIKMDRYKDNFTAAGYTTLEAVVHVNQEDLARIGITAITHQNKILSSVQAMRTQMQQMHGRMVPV
Experimental: as §1, §2

TYK2, sequence (P29597 whole entry): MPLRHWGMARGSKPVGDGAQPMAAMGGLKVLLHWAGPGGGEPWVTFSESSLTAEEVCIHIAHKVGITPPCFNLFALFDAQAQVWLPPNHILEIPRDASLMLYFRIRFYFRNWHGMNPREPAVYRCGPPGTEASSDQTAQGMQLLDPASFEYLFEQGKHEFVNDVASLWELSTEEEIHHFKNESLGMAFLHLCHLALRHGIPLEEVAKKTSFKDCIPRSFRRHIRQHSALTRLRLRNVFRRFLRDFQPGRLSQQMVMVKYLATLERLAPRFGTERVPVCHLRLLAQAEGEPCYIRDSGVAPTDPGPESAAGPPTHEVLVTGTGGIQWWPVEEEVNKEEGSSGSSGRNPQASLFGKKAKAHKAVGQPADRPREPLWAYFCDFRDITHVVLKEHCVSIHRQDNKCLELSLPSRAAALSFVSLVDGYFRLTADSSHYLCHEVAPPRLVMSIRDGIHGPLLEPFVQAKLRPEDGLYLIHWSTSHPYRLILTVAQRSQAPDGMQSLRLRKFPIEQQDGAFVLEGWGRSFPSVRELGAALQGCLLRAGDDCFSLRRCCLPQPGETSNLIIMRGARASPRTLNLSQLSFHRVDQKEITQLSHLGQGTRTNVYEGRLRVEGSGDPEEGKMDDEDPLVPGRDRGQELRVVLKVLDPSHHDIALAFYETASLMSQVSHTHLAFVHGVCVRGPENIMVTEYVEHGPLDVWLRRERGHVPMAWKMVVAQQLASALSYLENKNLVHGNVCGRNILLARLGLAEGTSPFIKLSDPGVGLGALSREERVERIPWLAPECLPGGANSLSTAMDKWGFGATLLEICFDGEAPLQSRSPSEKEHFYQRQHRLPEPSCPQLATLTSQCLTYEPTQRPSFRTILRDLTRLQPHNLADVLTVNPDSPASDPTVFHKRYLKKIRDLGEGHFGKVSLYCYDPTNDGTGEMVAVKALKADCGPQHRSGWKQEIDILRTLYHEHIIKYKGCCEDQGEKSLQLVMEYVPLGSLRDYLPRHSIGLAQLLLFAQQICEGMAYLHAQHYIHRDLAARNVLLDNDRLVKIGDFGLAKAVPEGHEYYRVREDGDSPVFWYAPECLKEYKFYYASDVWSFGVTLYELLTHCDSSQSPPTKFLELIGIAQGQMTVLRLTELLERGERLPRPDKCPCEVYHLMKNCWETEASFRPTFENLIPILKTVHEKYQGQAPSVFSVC

Row | Structure (SMILES) | inhibition at 1 µM (TYK2) [%] | inhibition at 1 µM (TXK) [%] | inhibition at 1 µM (EPHA5) [%] | inhibition at 1 µM (YES1) [%] | inhibition at 1 µM (TEC) [%] | inhibition at 1 µM (MAP4K3 (GLK)) [%] | inhibition at 1 µM (AKT2 (PKB beta)) [%] | inhibition at 1 µM (SYK) [%] | inhibition at 1 µM (EPHA4) [%]
1 | COc1cc2nccc(Oc3ccc(NC(=O)C4(C(=O)Nc5ccc(F)cc5)CC4)cc3)c2cc1OC [Cabozantinib, reference compound] | 9 | 17 | 100 | 63 | 5 | 48 | 17 | 16 | 100
2 | COc1cc2nccc(Oc3ccc(NC(=O)C4(NC(=O)c5ccc(F)cc5)CC4)cc3F)c2cc1OC [Cbo-02, N-(1-((4-((6,7-diMethoxyquinolin-4-yl)oxy)-3-fluorophenyl)carbamoyl)cyclopropyl)-4-fluorobenzamide] | 7 | 14 | 41 | 34 | 29 | 43 | 10 | 14 | 79
3 | COc1cc2nccc(Oc3ccc(NC(=O)C4(NC(=O)c5ccc(F)cc5)CC4)cc3F)c2cc1Oc1ccc(N)cc1F [Cbo-10] | 9 | 55 | 87 | 64 | 80 | 59 | 5 | 24 | 91
4 | COc1cc2nccc(Oc3ccc(NC(=O)C4(NC(=O)c5ccc(F)cc5)CC4)cc3F)c2cc1Oc1c(F)cc(N)cc1F [Cbo-14] | 16 | 52 | 92 | 63 | 77 | 58 | 10 | 27 | 89
5 | COc1cc2nccc(Oc3ccc(NC(=O)C4(C(=O)Nc5ccc(F)cc5)CC4)cc3F)c2cc1Oc1ccc(N)cc1F [Cbo-23] | 7 | 32 | 99 | 94 | 37 | 41 | 0 | 15 | 100
